Measurements published in PMC10886425, “Antibacterial Activity and Cytotoxicity Screening of Acyldepsipeptide-1 Analogues Conjugated to Silver/Indium/Sulphide Quantum Dots” (Antibiotics, 2024).
≈ marks a conversion by molar mass, not a printed value. Like-named read-outs stand apart in the source and are kept apart here.

Legend:
[1] = tested on: Pseudomonas aeruginosa ATCC 15,442; assay: Broth microdilution susceptibility assay (MIC) with plating on agar (MBC); type: cell-based; conditions: ATCC15, P. aeruginosa, overnight 37 °C, conjugate concentration as loaded ADEP1 analogue
Description: (§1) ADEP1 analogues (SC005-8) were synthesized in-house, as described by Cobongela et al., [11]. 1-Ethyl-3-(3-dimethylaminopropyl) carbodiimide (EDC), […] (sulfo-NHS), dimethyl sulfoxide (DMSO), thioglycolic acid (TGA), silver nitrate (AgNO3), sodium sulfide (Na2S·xH2O), gelatin, Dulbecco’s Modified Eagle Medium (DMEM), phosphate, trypsin, penicillin-streptomycin, fetal bovine serum (FBS), 3-(4,5-dimethylthiazol-2-yl)-5-(3-carboxymethoxyphenyl)-2-(4-sulfophenyl)-2H-tetrazolium (MTS dye), and trypan blue stain dye were all purchased from Sigma (St Louis, MO, USA). Bacillus subtilis American Type Culture Collection (ATCC) 11774, Staphylococcus aureus ATCC 25,923 and Methicillin-resistant Staphylococcus aureus (MRSA) ATCC 43300, and two Gram-negative (Escherichia coli ATCC 33,876 and Pseudomonas aeruginosa ATCC 15,442 were purchased from ATCC (Manassas, VA, USA). Human embryonic kidney 293 (HEK-293) cells were purchased from Cellonex (Randburg, Gauteng Province, South Africa).
(§2) The MIC and MBC of the AgInS2-ADEP1 analogue conjugates against B. subtilis, S. aureus, MRSA, P. aeruginosa and E. coli was determined using the broth microdilution susceptibility assay, following a previously described protocol. Briefly, overnight-grown bacterial cultures were adjusted to approximately 1.5 × 10^8 CFU/mL in a sterile Luria–Bertani broth. The concentration of ADEP1 on AgInS2-ADEP1 analogue conjugates was calculated based on the ADEP1 analogues calibration curve. AgInS2-ADEP1 analogue conjugates and ADEP1 analogues were diluted via 2-fold serial dilution with broth containing a final concentration range of 0.8–100 µM and 15.6–2000 µM, respectively. Gentamicin (concentration range between 0.007 and 6.7 mM) was used as a positive control for B. subtilis, S. aureus, MRSA, and P. aeruginosa, while ampicillin (concentration range between 0.18 and 6.7 mM) was used as a positive control for E. coli, and 5% DMSO was used as a negative control. The 96-well plates were then incubated overnight at 37 °C. […] The MBC was determined as the lowest concentration resulting in complete […].

[2] = tested on: Bacillus subtilis ATCC 11774; assay: as above; type: cell-based; conditions: ATCC11774, B. subtilis, overnight 37 °C, conjugate concentration as loaded ADEP1 analogue
Description: as §1, §2

[3] = tested on: Staphylococcus aureus ATCC 25,923; assay: as above; type: cell-based; conditions: ATCC25, S. aureus, overnight 37 °C, conjugate concentration as loaded ADEP1 analogue
Description: as §1, §2

[4] = tested on: Methicillin-resistant Staphylococcus aureus (MRSA) ATCC 43300; assay: as above; type: cell-based; conditions: overnight 37 °C, conjugate concentration as loaded ADEP1 analogue
Description: as §1, §2

[5] = tested on: Methicillin-resistant Staphylococcus aureus (MRSA) ATCC 43300; conditions: free ADEP1 analogues; cited from earlier work
Description: Table 4 MIC and MBC values of the AgInS2 QD-ADEP1 analogue conjugates and ADEP1 analogues. | column: MRSA / MIC µM; MRSA / MBC µM

[6] = tested on: Bacillus subtilis ATCC 11774; conditions: B. subtilis; free ADEP1 analogues; cited from earlier work
Description: Table 4 MIC and MBC values of the AgInS2 QD-ADEP1 analogue conjugates and ADEP1 analogues. | column: B. subtilis / MIC µM; B. subtilis / MBC µM

[7] = tested on: Escherichia coli ATCC 33,876; conditions: E. coli; free ADEP1 analogues; cited from earlier work
Description: Table 4 MIC and MBC values of the AgInS2 QD-ADEP1 analogue conjugates and ADEP1 analogues. | column: E. coli / MIC µM; E. coli / MBC µM

[8] = Hydrodynamic size by dynamic light scattering (DLS); type: physicochemical; conditions: AgInS2 QDs alone or after conjugation with the named ADEP1 analogue
Experimental: (§3) A Spectro Xepos-05 energy-dispersive X-ray fluorescence (ED-XRF, Rigaku, TX, USA) instrument was used to determine the Ag, In, and S concentrations in the gelatin-capped AgInS2 QD powder. The core sizes of AgInS2 QDs and AgInS2-ADEP1 analogue conjugates were analyzed by the high-resolution transmission electron microscope (HR-TEM, JEOL, Tokyo, Japan). Fourier transform infrared spectroscopy (FTIR) spectra were recorded using a Perkin Elmer Spectrum Two UATR-FTIR spectrometer (PerkinElmer, Buckinghamshire, UK). The Hitachi F-2700FL spectrofluorophotometer (Hitachi, Tokyo, Japan) was used for the fluorescence measurements. Malvern system 4700 zetasizer (Malvern, Great Malvern, UK) together with a dynamic light scattering (DLS) technique were used to determine the zeta potential and particle hydrodynamic size of the AgInS2 QDs and AgInS2-ADEP1 analogue conjugates using.

[9] = Zeta potential (zetasizer); type: physicochemical; conditions: Malvern zetasizer; for Zeta Potential after Conjugation: after conjugation to gelatin-capped AgInS2 QDs; for Zeta Potential before Conjugation: unconjugated ADEP1 analogue or AgInS2 QDs alone
Experimental: as §3

[10] = tested on: Pseudomonas aeruginosa ATCC 15,442; conditions: P. aeruginosa; free ADEP1 analogues; cited from earlier work
Description: Table 4 MIC and MBC values of the AgInS2 QD-ADEP1 analogue conjugates and ADEP1 analogues. | column: P. aeruginosa / MIC µM; P. aeruginosa / MBC µM

[11] = tested on: Staphylococcus aureus ATCC 25,923; conditions: S. aureus; free ADEP1 analogues; cited from earlier work
Description: Table 4 MIC and MBC values of the AgInS2 QD-ADEP1 analogue conjugates and ADEP1 analogues. | column: S. aureus / MIC µM; S. aureus / MBC µM

[12] = tested on: Escherichia coli ATCC 33,876; assay: Broth microdilution susceptibility assay (MIC) with plating on agar (MBC); type: cell-based; conditions: ATCC33, E. coli, overnight 37 °C, conjugate concentration as loaded ADEP1 analogue
Description: as §1, §2

[13] = Luria-Bertani broth, ~1.5 × 10^8 CFU/mL
[14] = MIC wells plated on Luria-Bertani agar

Work on `CNC(C)C1CCC(N)C(OC2C(N)CC(N)C(OC3OCC(C)(O)C(NC)C3O)C2O)O1` (centres unmarked) [Gentamicin] yielded an MIC [1, 13] of 419 µM (≈ 200 µg/mL), an MBC [1, 14] of 838 µM (≈ 400 µg/mL) and an MIC ([2]; Luria-Bertani broth, ~1.5 × 10^8 CFU/mL, no visible growth) of 26.1 µM (≈ 12.5 µg/mL). For the same molecule, the MBC [2, 14] was 52.3 µM (≈ 25 µg/mL), the MIC [3, 13] was 0.5 µM (≈ 0.239 µg/mL) and the MBC [3, 14] was 1 µM (≈ 0.478 µg/mL). The MIC [4, 13] was 26.2 µM (≈ 12.5 µg/mL) and the MBC [4, 14] was 52.4 µM (≈ 25 µg/mL).
For “Adamantane-FCPAAPC; L-form amino acids (disulfide) [SC007, Disulphide bond cyclized ADEP1 analogue, Adamantane-FCPAAPC, L-form amino acids]”, the MBC [5] is listed as 500 µM, the MIC [5] is listed as 250 µM and the MBC [6] is listed as 125 µM. The MIC [6] was 125 µM, the MBC [7] was 750 µM and the MIC [7] was 500 µM. The “Hydrodynamic Diameter” value [8] was 44.4 ± 0.7 nm, the “Zeta Potential after Conjugation” value [9] was 1.00 ± 0.15 mV and the “Zeta Potential before Conjugation” value [9] was −3.9 ± 0.8 mV. The MBC [10] was 250 µM, the MIC [10] was 125 µM and the MBC [11] was 125 µM. The MIC [11] was 63 µM.
In the case of “Adamantane-FCPAAPC; D-form amino acids (disulfide) [SC006, Disulphide bond cyclized ADEP1 analogue, Adamantane-FCPAAPC, D-form amino acids]”, the MBC [5] is given as 250 µM, the MIC [5] is given as 250 µM and the MBC [6] is given as 250 µM. For the same molecule, the MIC [6] was 250 µM, the MBC [7] was 750 µM and the MIC [7] was 500 µM. For the same molecule, the “Hydrodynamic Diameter” value [8] was 44.2 ± 1.4 nm, the “Zeta Potential after Conjugation” value [9] was 1.38 ± 0.06 mV and the “Zeta Potential before Conjugation” value [9] was −3.8 ± 1.1 mV. The MBC [10] was 250 µM, the MIC [10] was 125 µM and the MBC [11] was 125 µM. The MIC [11] was 63 µM.
Molecule `CC1(C)S[C@@H]2[C@H](NC(=O)[C@H](N)c3ccccc3)C(=O)N2[C@H]1C(=O)O` [Ampicillin] has an MIC [12, 13] of 2860 µM (≈ 1000 µg/mL) and an MBC [12, 14] of 5.72 mM (≈ 2000 µg/mL).
In the case of “Palmitic acid-FCPAAPC; D-form amino acids (disulfide) [SC005, Disulphide bond cyclized ADEP1 analogue, Palmitic acid-FCPAAPC, D-form amino acids]”, the MBC [5] is given as 250 µM, the MIC [5] is given as 125 µM and the MBC [6] is given as 125 µM. For the same molecule, the MIC [6] was 125 µM, the MBC [7] was 750 µM and the MIC [7] was 500 µM. The “Hydrodynamic Diameter” value [8] was 49.6 ± 1.6 nm, the “Zeta Potential after Conjugation” value [9] was 1.46 ± 0.02 mV and the “Zeta Potential before Conjugation” value [9] was −7.2 ± 1.6 mV. For the same molecule, the MBC [10] was 250 µM, the MIC [10] was 125 µM and the MBC [11] was 125 µM. The MIC [11] was 63 µM.
For “Palmitic acid-FCPAAPC; L-form amino acids (disulfide) [SC008, Disulphide bond cyclized ADEP1 analogue, Palmitic acid-FCPAAPC, L-form amino acids]”, the MBC [5] is listed as 500 µM, the MIC [5] is listed as 250 µM and the MBC [6] is listed as 125 µM. The MIC [6] was 125 µM, the MBC [7] was 750 µM and the MIC [7] was 500 µM. The “Hydrodynamic Diameter” value [8] was 50.3 ± 1.6 nm, the “Zeta Potential after Conjugation” value [9] was 1.39 ± 0.09 mV and the “Zeta Potential before Conjugation” value [9] was −6.9 ± 1.5 mV. For the same molecule, the MBC [10] was 250 µM, the MIC [10] was 125 µM and the MBC [11] was 125 µM. For the same molecule, the MIC [11] was 63 µM.
